Test system: HepaRG
Assay: LDH release cytotoxicity, % of total lysis control; higher = more cytotoxic
Details: 48 h
Method in brief: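 Duplicate wells of single-lot HepaRG cells, grown on collagen I-coated 96-well plates, received eight-point half-log series of test chemicals with 100 µM as the top concentration. Exposure lasted 48 h in serum-free induction medium with 0.5% DMSO, while total lysis wells received 0.1% Triton X. Resorufin fluorescence (CytoTox-ONE, Tecan Safire) was used to quantify LDH leaked into 50 µL of spent medium. Values for percent cytotoxicity were normalized to on-plate vehicle and total lysis controls and averaged across the duplicates.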

Nc1ccc2c(c1)C(=O)c1ccccc1C2=O [2-Aminoanthraquinone]
Details | LDH release cytotoxicity [%]
0.03162 µM | -1.78
0.1 µM | -1.65
0.3162278 µM | -1.65
1 µM | -1.44
3.16228 µM | -1.62
10 µM | -1.05
31.6228 µM | -1.21
100 µM | -0.125

C=CCCCCCCCCCCCC [1-Tetradecene]
Details | LDH release cytotoxicity [%]
0.031623 µM | -1.3
0.1 µM | -3.45
0.316228 µM | -3.94
1 µM | -4.65
3.16228 µM | -3.81
10 µM | -4.29
31.6228 µM | -4.23
100 µM | -4.05

O=C(O)c1nc(Cl)ccc1Cl [Clopyralid-olamine]
Details | LDH release cytotoxicity [%]
0.03162 µM | -1.75
0.1 µM | -1.37
0.3162278 µM | -2.18
1 µM | -3.35
3.16228 µM | -1.65
10 µM | -1.04
31.6228 µM | -1.18
100 µM | 0.521

CCCCC(CC)C(=O)O (centres undefined) [2-Ethylhexanoic acid]
Details | LDH release cytotoxicity [%]
0.0327296 µM | -0.279
0.1035 µM | -1.03
0.327296 µM | -1.23
1.035 µM | -1.42
3.27296 µM | -1.45
10.35 µM | -1.29
32.729574 µM | -1.58
103.5 µM | -0.99

CN1CCCC1=O [N-Methyl-2-pyrrolidone]
Details | LDH release cytotoxicity [%]
0.03162 µM | -2.92
0.1 µM | -3.16
0.3162278 µM | -2.9
1 µM | -2.75
3.16228 µM | -1.74
10 µM | -1.93
31.6228 µM | -2.93
100 µM | 7.04

CCC[CH2][Sn]([Cl])([CH2]CCC)[CH2]CCC [Tributyltin chloride]
Details | LDH release cytotoxicity [%]
0.031623 µM | 0.564
0.1 µM | -3.6
0.316228 µM | -2.2
1 µM | -2.91
3.16228 µM | -3.46
10 µM | -2.765
31.6228 µM | -1.81
100 µM | 0.00684

C[N+]1(C)CCCCC1 [1,1-Dimethylpiperidinium chloride]
Details | LDH release cytotoxicity [%]
0.03162 µM | -1.22
0.1 µM | -0.187
0.3162278 µM | -1.4
1 µM | -1.35
3.16228 µM | 0.248
10 µM | 0.722
31.6228 µM | -0.465
100 µM | 0.762

CC(C)(C)c1cccc(C(C)(C)C)c1O [2,6-Di-tert-butylphenol]
Details | LDH release cytotoxicity [%]
0.03162 µM | -1.46
0.1 µM | -2.07
0.3162278 µM | -1.81
1 µM | -2.85
3.16228 µM | -2.37
10 µM | -2.01
31.6228 µM | -2.37
100 µM | -2.35

CCCCC(C#N)(Cn1cncn1)c1ccc(Cl)cc1 (centres undefined) [Myclobutanil]
Details | LDH release cytotoxicity [%]
0.031623 µM | 0.809
0.1 µM | 0.0936
0.316228 µM | -0.274
1 µM | -0.556
3.16228 µM | -7.8
10 µM | 8.33
31.6228 µM | 0.7089
100 µM | 7.68

CC(=O)O [Acetic acid]
Details | LDH release cytotoxicity [%]
0.0317809 µM | -1.92
0.1005 µM | -2.2
0.317809 µM | -1.18
1.005 µM | -1.23
3.17809 µM | -0.0523
10.05 µM | -0.22
31.7809 µM | -0.0673
100.5 µM | 1.25

O=C(O)c1cccc(N(Cc2cccnc2)c2ccc(OC(F)F)c(OC(F)F)c2)c1
Details | LDH release cytotoxicity [%]
0.03162 µM | -1.28
0.1 µM | -1.45
0.3162278 µM | -1.1
1 µM | -1.77
3.16228 µM | -1.858
10 µM | -2.03
31.6228 µM | -2.58
100 µM | -1.73

Cc1c(C(=O)O)c(O)cc2c1C(=O)c1c(O)c(C3OC(CO)C(O)C(O)C3O)c(O)c(O)c1C2=O (centres undefined) [Carminic acid]
Details | LDH release cytotoxicity [%]
0.03162 µM | -11.2
0.1 µM | -11.08
0.3162278 µM | -10.7
1 µM | -11.1
3.16228 µM | -11.2
10 µM | -11
31.6228 µM | -9.8
100 µM | -10.4

COC(=O)c1ccc(O)cc1 [Methylparaben]
Details | LDH release cytotoxicity [%]
0.03162 µM | -1.06
0.1 µM | -1.64
0.3162278 µM | -1.84
1 µM | -0.442
3.16228 µM | -0.946
10 µM | -0.563
31.6228 µM | -0.515
100 µM | 0.108

CCCC(=O)OCC [Ethyl butyrate]
Details | LDH release cytotoxicity [%]
0.03162 µM | -2.73
0.1 µM | -1.76
0.3162278 µM | -1.67
1 µM | -2.36
3.16228 µM | -1.92
10 µM | -0.558
31.6228 µM | 0.726
100 µM | 0.69

COC(=O)c1ccc(I)cc1S(=O)(=O)NC(=O)Nc1nc(C)nc(OC)n1 [Iodosulfuron-methyl-sodium]
Details | LDH release cytotoxicity [%]
0.03162 µM | -1.49
0.1 µM | -0.389
0.3162278 µM | -1.21
1 µM | -0.477
3.16228 µM | -0.16
10 µM | 0.897
31.6228 µM | 0.0334
100 µM | 2.49

Cc1cnc(C2=NC(=O)C(C)(C(C)C)N2)c(C(=O)O)c1 (centres undefined) [Imazapic]
Details | LDH release cytotoxicity [%]
0.03162 µM | -0.83
0.1 µM | -2.27
0.3162278 µM | -1.6
1 µM | -1.46
3.16228 µM | -1.69
10 µM | -0.919
31.6228 µM | -0.228
100 µM | 0.017

CCCCCCCCCCCC(=O)OC [Methyl dodecanoate]
Details | LDH release cytotoxicity [%]
0.03162 µM | 0.879
0.1 µM | -1.07
0.3162278 µM | -1.35
1 µM | -1.18
3.16228 µM | -0.971
10 µM | -0.971
31.6228 µM | -1.41
100 µM | 0.025

CCCCC(CC)COC(=O)c1ccccc1C(=O)O (centres undefined) [MEHP]
Details | LDH release cytotoxicity [%]
0.0320971 µM | -1.24
0.1015 µM | -1.27
0.320971 µM | -1.13
1.015 µM | -1.47
3.2097118 µM | -1.28
10.15 µM | -0.944
32.0971 µM | -1.07
101.5 µM | 0.594

Source: the supplement of paper PMC7840683
